Measured values as given in patent publication US20020037885A1, “Therapeutic compounds” (priority 1999, published 2002).

| melting point | Structure (SMILES) |
| --- | --- |
| 209 to 214 °C | C#CCC(N)c1ccccc1-c1noc2cc(Cl)ccc12.Cl (centres unmarked) |
| 161 to 164 °C | C=CCC(N)c1cc(-c2noc3ccccc23)cs1.O=C(O)/C=C/C(=O)O (centres unmarked) |
| 176 to 180 °C | C=CCC(N)c1cc(F)ccc1-c1noc2ccccc12.O=C(O)/C=C/C(=O)O (centres unmarked) |
| 181 to 183 °C | C=CCC(N)c1ccccc1Cc1ccccc1.O=C(O)/C=C/C(=O)O (centres unmarked) |
| 97 to 108 °C | C=CC[C@H](N)c1ccc(F)cc1-c1noc2ccccc12.O=C(O)/C=C/C(=O)O |
| 194 to 197 °C | C=CCC(N)c1ccccc1-c1cnc2ccccc2c1.O=C(O)/C=C/C(=O)O (centres unmarked) |
| 164 to 169 °C | C=CCC(N)c1ccc(F)cc1-c1noc2ccc(F)cc12.O=C(O)/C=C/C(=O)O (centres unmarked) |
| 118 to 126 °C | CCCC(N)c1ccccc1-c1noc2ccccc12.Cl (centres unmarked) |
| 192 to 194 °C | C=CCC(N)c1ccccc1-c1ccc(Cl)c(F)c1.O=C(O)/C=C/C(=O)O (centres unmarked) |
| 154 °C | Cl.Cl.c1cncc(CNCc2ccccc2-c2noc3ccccc23)c1 |
| 165 to 170 °C | C#CCC(N)c1ccccc1-c1noc2ccccc12.O=C(O)/C=C/C(=O)O (centres unmarked) [Example 12(5)] |
| 104 to 109 °C | C=CC[C@@H](N)c1ccc(F)cc1-c1noc2ccccc12.O=C(O)/C=C/C(=O)O |
| 179 to 184 °C | C=CCC(N)c1ccccc1-c1cc(Cl)ccc1C.O=C(O)/C=C/C(=O)O (centres unmarked) |
| 190 to 192 °C | C=CCC(N)c1ccccc1-c1cc(F)ccc1C.O=C(O)/C=C/C(=O)O (centres unmarked) |
| 138 °C | c1ccc(-c2noc3ccccc23)c(CNCc2ccccc2-c2noc3ccccc23)c1 [Example 22, 2-(1,2-Benzisoxazol-3-yl)-N-[[2-(1,2-benzisoxazol-3-yl)phenyl]methyl]-benzenemethanamine] |
| 173 to 178 °C | C=CCC(N)C1(c2noc3ccccc23)CC=CS1.O=C(O)/C=C/C(=O)O (centres unmarked) |
| > 250 °C | C#CCC(N)c1ccccc1-c1noc2ccccc12.O=C(O)C(=O)O (centres unmarked) |
| 198 to 200 °C | C=CCC(N)c1ccccc1-c1ccc(C)cc1.O=C(O)/C=C/C(=O)O (centres unmarked) |
| 168 to 173 °C | C=CCC(N)c1cc(F)ccc1-c1noc2ccc(F)cc12.O=C(O)/C=C/C(=O)O (centres unmarked) |
| 209 to 211 °C | C=CCC(N)c1ccccc1-c1ccc(C)cc1F.O=C(O)/C=C/C(=O)O (centres unmarked) |
| 160 to 165 °C | C=CCC(N)c1ccccc1-c1coc2ccccc12.Cl (centres unmarked) |
| 162 to 164 °C | C=CCC(N)c1cc(F)ccc1-c1noc2cc(Cl)ccc12.O=C(O)/C=C\C(=O)O (centres unmarked) |

| melting point | Structure (SMILES) |
| --- | --- |
| 210 to 216 °C | C=CCC(N)c1oc2ccccc2c1-c1noc2ccccc12.O=C(O)/C=C/C(=O)O (centres unmarked) |
| 163 to 165 °C | C=CCC(N)c1ccccc1Cc1cccc(OC)c1.O=C(O)/C=C/C(=O)O (centres unmarked) |
| 148 to 150 °C | C=CCC(N)c1cccc(-c2noc3ccccc23)c1.O=C(O)/C=C\C(=O)O (centres unmarked) |
| 236 to 240 °C | C=CCC(N)c1ccccc1-c1ccccc1OC.Cl (centres unmarked) |
| 201 to 203 °C | C=CCC(N)c1ccccc1-c1ccc(F)cc1.O=C(O)/C=C/C(=O)O (centres unmarked) |
| 190 °C | CN(C)Cc1ccccc1-c1noc2ccccc12.Cl |
| 240 to 242 °C | C=CCC(N)c1ccccc1-c1nc2ccccc2s1.Cl (centres unmarked) |
| 209 to 214 °C | CCCCC(N)c1ccccc1-c1noc2cc(Cl)ccc12.Cl (centres unmarked) |
| 172 to 174 °C | C=CCC(N)c1ccccc1Cc1ccccc1OC.O=C(O)/C=C/C(=O)O (centres unmarked) |
| 75 to 77 °C | C=CCC(N)c1ccccc1N1C=CC=NC1.O=C(O)/C=C/C(=O)O (centres unmarked) |
| 194 to 196 °C | C=CCC(N)c1ccccc1-c1ccc(C)c(F)c1.O=C(O)/C=C/C(=O)O (centres unmarked) |
| 242 to 268 °C | C1=CCC(c2ccccc2-c2noc3ccccc23)NC1 (centres unmarked) [Example 36(11), 2-[2-(1,2-benzisoxazol-3-yl)-phenyl]-1,2,3,6-tetrahydropyridine] |
| 175 °C | CNC(Cc1ccccc1)c1ccccc1-c1noc2ccccc12.Cl (centres unmarked) |
| 150 to 175 °C | C=CCC(N)c1ccccc1-c1ccon1.O=C(O)/C=C/C(=O)O (centres unmarked) |
| 179 to 186 °C | C=CCC(N)c1ccccc1-c1noc2cc(C(F)(F)F)ccc12.O=C(O)/C=C/C(=O)O (centres unmarked) |
| 148 to 150 °C | C=CC[C@@H](N)c1ccccc1-c1noc2cc(F)ccc12.Cl |
| 184 °C | COc1ccccc1CNCc1ccccc1-c1noc2ccccc12.O=C(O)C(=O)O |
| 192 to 196 °C | C=CCC(N)c1ccccc1-c1cccc(Cl)c1C.O=C(O)/C=C/C(=O)O (centres unmarked) |
| 166 to 174 °C | C=CC[C@H](N)c1ccccc1-c1noc2cc(F)ccc12.Cl |
| 183 to 185 °C | C=CCC(N)c1ccccc1-c1ccoc1.O=C(O)/C=C/C(=O)O (centres unmarked) |
| 104 to 106 °C | C=CCC(N)c1ccccc1-c1cc2cc(F)ccc2s1.Cl (centres unmarked) |
| 226 to 228 °C | C=CCC(N)c1ccccc1-c1cc2cc(Cl)ccc2o1.Cl (centres unmarked) |

| melting point | Structure (SMILES) |
| --- | --- |
| 205 to 208 °C | C=CCC(N)c1ccccc1-c1ccc(-c2ccccc2)c(F)c1.O=C(O)/C=C/C(=O)O (centres unmarked) |
| 174 to 184 °C | CC(C)CC(N)c1ccccc1-c1noc2cc(F)ccc12.O=C(O)/C=C/C(=O)O (centres unmarked) |
| 161 to 169 °C | C#CCC(N)c1ccccc1-c1noc2ccccc12.O=C(O)/C=C/C(=O)O (centres unmarked) [Example 13(4)] |
| 158 to 165 °C | C=CCC(N)C1(c2noc3ccccc23)CC=CO1.O=C(O)/C=C/C(=O)O (centres unmarked) |
| 230 °C | CNCc1ccccc1-c1noc2ccccc12.Cl |
| 106 to 108 °C | C=CCC(N)c1ccccc1-c1cc2ccccc2s1.Cl (centres unmarked) |
| 202 to 204 °C | C=CCC(N)c1ccccc1-c1nc2ccccc2o1.O=C(O)/C=C/C(=O)O (centres unmarked) |
| 225 to 226 °C | C=CCC(N)c1ccccc1-c1ccccc1F.O=C(O)/C=C/C(=O)O (centres unmarked) |
| 165 to 180 °C | C=CCC(N)c1ccccc1-c1cc(-c2ccccc2)on1.O=C(O)/C=C/C(=O)O (centres unmarked) |
| 203 to 210 °C | NC(CCCC(F)(F)F)c1ccccc1-c1noc2ccccc12.O=C(O)/C=C/C(=O)O (centres unmarked) |
| 170 to 200 °C | C=C(C)CC(N)c1ccccc1-c1noc2ccccc12.Cl (centres unmarked) |
| 185 to 187 °C | C=CCC(N)c1ccccc1-c1csc2ccccc12.O=C(O)/C=C\C(=O)O (centres unmarked) |
| 132 to 135 °C | CC(C)=CCC(N)c1ccccc1-c1noc2ccccc12.O=C(O)/C=C\C(=O)O (centres unmarked) |
| 182 to 189 °C | C=CCC(N)c1ccc(-c2noc3ccccc23)s1.O=C(O)/C=C/C(=O)O (centres unmarked) |
| 196 to 197 °C | C=CCC(N)c1ccccc1-c1cccs1.O=C(O)/C=C/C(=O)O (centres unmarked) |
| 192 to 195 °C | C=CCC(N)c1ccccc1-c1noc2cc(F)ccc12.Cl (centres unmarked) |
| 189 to 191 °C | C=CCC(N)c1ccccc1-c1ccccc1Cl.O=C(O)/C=C/C(=O)O (centres unmarked) |
| 174 to 177 °C | C=CCC(N)c1cc(Cl)ccc1-c1noc2ccccc12.O=C(O)/C=C/C(=O)O (centres unmarked) |
| 130 to 138 °C | C=CCC(N)c1ccccc1-c1cc(C)on1.O=C(O)/C=C\C(=O)O (centres unmarked) |
| 253 to 261 °C | c1ccc(C2CCCN2)c(-c2noc3ccccc23)c1 (centres unmarked) [Example 36(12), 2-[2-(1,2-benzisoxazol-3-yl)-phenyl]-pyrrolidine] |
| 176 °C | C=CCNCc1ccccc1-c1noc2ccccc12.Cl |
